How the values were obtained:
[1] = tested on: platelet aggregation in Dog PRP; test: In-Vitro Platelet Aggregation in PRP (ADP induced); type: cell-based; settings: Canis lupus familiaris, ADP 50 um final concentration
Procedure: Healthy male or female dogs were fasted for 8 hours prior to drawing blood; then 30 ml whole blood was collected using a butterfly needle and 30 cc plastic syringe with 3 ml of 0.129 M buffered sodium citrate (3.8%). The syringe was rotated carefully as blood was drawn to mix the citrate. Platelet-rich plasma (PRP) was prepared by centrifugation at 975×g for 3.17 minutes at room temperature allowing the centrifuge to coast to a stop without braking. The PRP was removed from the blood with a plastic pipette and placed in a plastic capped, 50 mL Corning conical sterile centrifuge tube which was held at room temperature. Platelet poor plasma (PPP) was prepared by centrifuging the remaining blood at 2000×g for 15 minutes at room temperature allowing the centrifuge to coast to a stop without braking. The PRP was adjusted with PPP to a count of 2-3×10^8 platelets per mL. 400 uL of the PRP preparation and 50 uL of the compounds solution to be tested or saline were preincubated for 1 minute at 37° C. in a […].). 50 uL of adenosine 5' diphosphate (ADP) (50 um final concentration) was added to the cuvettes and the aggregation was monitored for 1 minute. All compounds are tested in duplicate. Results are calculated as follows: Percent of control=[(maximal OD minus initial OD of compound) divided by (maximal OD minus initial OD of control saline)]×100. The % inhibition=100-(percent of control).
The compounds tested and their median inhibitory concentrations (IC50) are recorded in Table I. IC50 's (dosage at which 50% of platelet aggregation is inhibited) were calculated by linear regression of the dose response curve.

[2] = tested on: ex vivo collagen induced platelet aggregation; test: Inhibition of ex vivo collagen induced aggregation (compound administered to dogs); set-up: species or system dog (Beagles); key: *: not active at the dose tested; settings: intragastric (IG) administration to dogs; collagen induced aggregation in PRP ex vivo; dose not given
Procedure: The purpose of this assay is to determine the effects of antiplatelet compounds on ex vivo collagen induced platelet aggregation when administered either intravenously or orally to dogs.
Pretreatment (control) blood samples are drawn from either conscious or anesthetized dogs (Beagles) and centrifuged to prepare platelet rich plasma (PRP). Aggregatory response to collagen is measured in a aggregometer and used as Control. Compounds are administered, either intragasterically (either by capsule or stomach tube or intravenously). Blood samples are drawn at predetermined intervals after compound administration, PRP prepared and aggregation to collagen determined. Compound inhibition of aggregation is determined by comparing the aggregation response after compound administration to the pretreatment response.

Q: How did the inhibition at 10 µM ([1]; at 10^-5 M, read-out: Dog PRP % Inh.) turn out when `N=C(N)c1ccc(NC(=O)N2CCCC2C(=O)NC(CC(=O)O)c2cccnc2)cc1` (stereo not drawn) [Example 4, β-[[N-2-[[[4-(aminoiminomethyl)phenyl]amino]carbonyl]pyrrolidylcarbonyl]amino]-3-pyridinepropanoic acid] was run?
A: 30%

Q: Which IC50 ([1]; 1 min, 37° C., aggregation monitored 1 minute) does the source give for `N=C(N)c1ccc(NC(=O)N2CCCC(C(=O)NC(CC(=O)O)c3cccnc3)C2)cc1` (stereo not drawn) [Example 2, β-[[N-3-[[[4-(aminoiminomethyl)phenyl]amino]carbonyl]piperidylcarbonyl]amino]-3-pyridinepropanoic acid] here?
A: 850 nM

Q: And the “Ex Vivo Effect after IG Administration” value [2]?
A: *

Q: With `N=C(N)c1ccc(NC(=O)N2CCC(C(=O)NC(CC(=O)O)c3cccnc3)CC2)cc1` (stereo not drawn) [Example 6, β-[[N-[[[4-(aminoiminomethyl)phenyl]amino]carbonyl]4-piperidylcarbonyl]amino]-3-pyridinepropanoic acid] as the molecule, how does the inhibition at 1 µM ([1]; at 10^-6 M, read-out: Dog PRP % Inh.) read?
A: 19%

From patent US6268380A, “Urea derivatives useful as platelet aggregation inhibitors” (G. D. Searle & Co., priority 1993, dated 2001)
